Read-outs that look alike come from different tables or passages of the source.
Assays:
[1] = molecular target: T1, Protein disulfide isomerase (PDI) (Homo sapiens, UniProt P07237); assay: insulin reduction assay; assay type: biochemical
[2] = molecular target: T1, Protein disulfide isomerase (PDI); assay: insulin reduction assay; assay type: biochemical; remark: listed apart in the source

T1 sequence (P07237 18-508): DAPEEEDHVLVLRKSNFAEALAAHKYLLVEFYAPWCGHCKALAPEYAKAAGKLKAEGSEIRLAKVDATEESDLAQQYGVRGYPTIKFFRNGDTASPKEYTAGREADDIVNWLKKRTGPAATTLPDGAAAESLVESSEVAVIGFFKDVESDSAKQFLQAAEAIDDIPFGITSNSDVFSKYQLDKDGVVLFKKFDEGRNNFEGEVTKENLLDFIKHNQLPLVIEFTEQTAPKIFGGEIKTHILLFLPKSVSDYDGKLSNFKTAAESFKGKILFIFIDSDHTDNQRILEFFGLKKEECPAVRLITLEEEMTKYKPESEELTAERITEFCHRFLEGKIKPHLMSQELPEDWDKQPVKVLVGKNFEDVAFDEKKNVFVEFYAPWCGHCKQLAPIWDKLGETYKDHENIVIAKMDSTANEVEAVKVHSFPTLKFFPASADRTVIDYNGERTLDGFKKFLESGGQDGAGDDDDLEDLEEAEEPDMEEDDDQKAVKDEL

IC50 [1] [nM]	IC50 [2] [nM]	Compound
4500	–	C[C@@H]1O[C@@H](OC[C@H]2O[C@@H](Oc3c(-c4ccc(O)c(O)c4)oc4cc(O)cc(O)c4c3=O)[C@H](O)[C@@H](O)[C@@H]2O)[C@H](O)[C@H](O)[C@H]1O [rutin]
–	700	bepristat 2a

From article PMC8792282 (Redox Biology, 2022)
